The values below are quoted from earlier work in paper PMC4461526 (Bioorganic & medicinal chemistry, 2015).

In general, IC50 refers to the midpoint of a concentration-inhibition curve.

For data set [1], the target named is T1, Human ABCC2 (Homo sapiens, UniProt Q92887). The note with it: ref 30 (Kidron et al.); for IC50: read-out: IC50 (inhibitors of EG).
Data set [2] deals with T1, Human ABCC2. The note with it: ref 30 (Kidron et al.).

T1 sequence (Q92887 whole entry): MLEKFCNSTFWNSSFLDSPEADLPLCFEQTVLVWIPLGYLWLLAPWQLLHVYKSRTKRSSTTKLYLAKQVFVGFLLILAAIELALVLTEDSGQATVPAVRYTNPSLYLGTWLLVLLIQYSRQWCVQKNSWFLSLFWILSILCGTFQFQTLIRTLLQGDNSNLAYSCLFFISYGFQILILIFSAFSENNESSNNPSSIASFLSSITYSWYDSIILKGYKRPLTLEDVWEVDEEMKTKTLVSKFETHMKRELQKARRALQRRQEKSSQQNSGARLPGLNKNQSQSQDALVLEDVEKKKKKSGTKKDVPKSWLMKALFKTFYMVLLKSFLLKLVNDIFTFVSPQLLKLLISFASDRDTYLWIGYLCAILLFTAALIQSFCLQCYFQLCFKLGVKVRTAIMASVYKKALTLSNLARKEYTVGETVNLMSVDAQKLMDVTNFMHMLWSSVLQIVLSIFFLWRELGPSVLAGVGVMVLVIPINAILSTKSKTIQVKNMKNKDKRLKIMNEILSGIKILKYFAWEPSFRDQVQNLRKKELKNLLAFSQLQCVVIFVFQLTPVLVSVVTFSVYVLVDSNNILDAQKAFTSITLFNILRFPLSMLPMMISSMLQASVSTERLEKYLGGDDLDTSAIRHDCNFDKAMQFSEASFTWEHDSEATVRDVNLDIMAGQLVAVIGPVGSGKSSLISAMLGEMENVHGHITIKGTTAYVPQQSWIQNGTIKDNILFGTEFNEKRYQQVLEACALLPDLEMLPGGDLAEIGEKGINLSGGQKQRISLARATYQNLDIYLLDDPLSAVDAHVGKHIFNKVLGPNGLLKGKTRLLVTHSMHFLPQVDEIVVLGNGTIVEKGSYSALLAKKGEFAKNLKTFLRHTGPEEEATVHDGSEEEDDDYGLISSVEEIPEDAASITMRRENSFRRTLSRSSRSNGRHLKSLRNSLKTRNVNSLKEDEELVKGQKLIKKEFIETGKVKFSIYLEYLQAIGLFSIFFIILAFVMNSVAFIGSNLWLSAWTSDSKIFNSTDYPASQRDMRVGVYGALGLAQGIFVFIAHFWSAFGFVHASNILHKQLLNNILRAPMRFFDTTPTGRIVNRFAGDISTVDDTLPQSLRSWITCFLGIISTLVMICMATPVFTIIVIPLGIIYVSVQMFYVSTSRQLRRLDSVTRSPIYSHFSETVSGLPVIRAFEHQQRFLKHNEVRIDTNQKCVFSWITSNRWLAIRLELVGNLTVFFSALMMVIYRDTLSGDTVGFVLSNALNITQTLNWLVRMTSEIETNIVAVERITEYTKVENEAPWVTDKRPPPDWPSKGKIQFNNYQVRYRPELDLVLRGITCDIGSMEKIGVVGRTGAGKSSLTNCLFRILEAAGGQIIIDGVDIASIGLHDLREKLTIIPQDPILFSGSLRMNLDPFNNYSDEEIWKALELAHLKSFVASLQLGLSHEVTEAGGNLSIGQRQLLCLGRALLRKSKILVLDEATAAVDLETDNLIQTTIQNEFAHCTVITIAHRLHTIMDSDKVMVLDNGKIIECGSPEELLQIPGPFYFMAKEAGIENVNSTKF

Take `CCCC1O[C@@H]2C[C@H]3[C@@H]4CCC5=CC(=O)C=C[C@]5(C)[C@H]4[C@@H](O)C[C@]3(C)[C@]2(C(=O)CO)O1` (stereo partly shown) [budes-onide]: the 50% inhibitory concentration (IC50) at Human ABCC2 [1] is 40 to 60 µM. Moreover, the “effect on CDCF transport” value at Human ABCC2 [2] is recorded as “stimulating”.
`O=C(O)Cc1ccccc1Nc1c(Cl)cccc1Cl` [diclofenac]: the “effect on EG transport” value at Human ABCC2 [1] is on record as “stimulators”.
With `C[C@]12CC[C@@H]3c4ccc(OS(=O)(=O)O)cc4CC[C@H]3[C@@H]1CCC2=O` [estrone-3-sulfate], at Human ABCC2 [1], the “effect on EG transport” value is recorded as “stimulators”.
In the case of `COc1ccc2c(c1)c(CC(=O)O)c(C)n2C(=O)c1ccc(Cl)cc1` [indomethacin], the “effect on EG transport” value at Human ABCC2 [1] is “stimulators”.
In the case of `CSc1ccc2c(c1)N(CCC1CCCCN1C)c1ccccc1S2` (stereo not shown) [thioridazine], the IC50 on Human ABCC2 [1] is 40 to 60 µM. For the same molecule, at Human ABCC2 [2], the “effect on CDCF transport” value is “stimulating”.
